Tests used:
[1] = target: PHD-bromodomain of TRIM24 (Homo sapiens (Human), UniProt O15164); test: TRIM24 binding alpha assay; conditions: Alpha Assay binding to TRIM24; compounds 50 μM to 0.002 μM
Protocol: The alpha TRIM24 binding assay is used to assess the binding of the compounds of the application. Compounds are added at various concentrations as well as a vehicle control. Compounds that bind to TRIM24 compete away the interaction between the PHD-bromodomain of TRIM24 bound to the donor bead, and the H3K23ac histone peptide bound to the acceptor bead, which causes a decrease in signal. IC50 values are calculated.
The alpha assay was used to assess the binding of the compounds of the application to TRIM24 at various concentrations. All compounds were added at concentrations from 50 μM to 0.002 μM. Compounds that bind to TRIM24 compete with the PHD-bromodomain of TRIM24 in interacting with the donor bead, and the H3K23ac histone peptide bound to the acceptor bead, which causes a decrease in signal. IC50 values were calculated by using Graphpad PRISM's log(inhibitor) vs. response—variable slope (four parameters).

[2] = target: TRIM24 (Homo sapiens (Human), UniProt O15164); test: Destabilization of TRIM24 over time in MCF7 cells (immunoblot); format: cell-based
TRIM24, sequence (O15164 whole entry): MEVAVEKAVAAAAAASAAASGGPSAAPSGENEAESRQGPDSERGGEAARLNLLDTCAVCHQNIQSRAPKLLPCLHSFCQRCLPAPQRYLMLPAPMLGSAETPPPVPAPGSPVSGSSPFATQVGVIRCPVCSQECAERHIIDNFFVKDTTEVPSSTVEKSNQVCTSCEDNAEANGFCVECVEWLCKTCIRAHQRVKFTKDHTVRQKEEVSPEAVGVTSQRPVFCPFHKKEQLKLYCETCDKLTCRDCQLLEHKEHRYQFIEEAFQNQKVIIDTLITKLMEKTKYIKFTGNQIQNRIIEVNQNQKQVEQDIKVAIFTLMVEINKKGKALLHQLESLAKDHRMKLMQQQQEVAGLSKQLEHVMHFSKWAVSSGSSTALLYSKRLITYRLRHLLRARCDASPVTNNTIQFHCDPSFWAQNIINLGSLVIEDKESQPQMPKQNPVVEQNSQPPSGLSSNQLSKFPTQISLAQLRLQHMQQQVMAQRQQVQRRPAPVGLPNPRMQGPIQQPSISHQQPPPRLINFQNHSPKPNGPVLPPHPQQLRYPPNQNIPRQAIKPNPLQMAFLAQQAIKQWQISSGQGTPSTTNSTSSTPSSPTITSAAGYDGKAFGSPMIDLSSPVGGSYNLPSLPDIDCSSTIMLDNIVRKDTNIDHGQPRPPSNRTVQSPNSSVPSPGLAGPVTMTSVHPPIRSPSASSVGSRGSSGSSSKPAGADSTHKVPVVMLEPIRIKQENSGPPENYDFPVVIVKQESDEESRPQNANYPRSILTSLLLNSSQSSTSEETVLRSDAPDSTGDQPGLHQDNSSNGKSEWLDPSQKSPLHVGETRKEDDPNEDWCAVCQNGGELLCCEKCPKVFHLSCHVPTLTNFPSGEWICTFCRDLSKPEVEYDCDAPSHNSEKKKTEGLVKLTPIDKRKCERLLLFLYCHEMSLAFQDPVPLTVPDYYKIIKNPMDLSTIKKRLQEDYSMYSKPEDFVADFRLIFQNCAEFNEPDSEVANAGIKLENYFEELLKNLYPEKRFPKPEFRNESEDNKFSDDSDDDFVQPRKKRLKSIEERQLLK
Protocol: Wild-type or cereblon null 293T cells, or MCF7 cells, were treated with compounds of the application. The cells were treated for 4 hours or 18 hours with representative compounds at a final concentration of 10 μM, 5 μM, or 0.5 μM, or with a vehicle control. Cells were harvested and lysed using RIPA buffer with Halt protease inhibitors and 0.1% benzonase on ice for 15 minutes. The amount of total protein was quantified using the BCA assay. Primary antibodies used were TRIM24 (Cell Signaling Technology) as well as actin (Santa Cruz). Blots were imaged using secondary antibodies (LI-COR) on the OdysseyCLxImager. Band intensities were quantified using the LI-COR software. TRIM24 signal was normalized to the actin loading control. The signal intensity of TRIM24 from cells treated with DMSO was set to 1, and all other treatment conditions were normalized to the DMSO condition per immunoblot to determine the level of TRIM24, which was expressed as a ratio to the TRIM24 level in the DMSO treated cells.
In addition. MCF7 cells were treated for 24, 48, and 72 hours with representative compounds of the application at 5 μM.

PHD-bromodomain of TRIM24, sequence (O15164 824-1006): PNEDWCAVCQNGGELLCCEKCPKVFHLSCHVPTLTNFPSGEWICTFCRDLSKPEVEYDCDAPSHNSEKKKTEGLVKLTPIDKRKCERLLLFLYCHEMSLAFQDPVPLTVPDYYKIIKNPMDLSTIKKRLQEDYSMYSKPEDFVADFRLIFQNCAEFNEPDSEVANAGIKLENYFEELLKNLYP

- IC50 [1]: 50 to 100 nM
- level of TRIM24 compared to vehicle ([2]; 5 μM, 24, 48 and 72 hours): significantly reduced
- decrease in the level of TRIM24 over time ([2]; 5 μM, 24 h to 72 h): continued over a 24 h to 72 h period
SMILES: CCCOc1cccc(Oc2cc3c(cc2NS(=O)(=O)c2cccc(C(=O)NCCOCCOCCOCC(=O)N[C@H](C(=O)N4C[C@H](O)C[C@H]4C(=O)NCc4ccc(-c5scnc5C)cc4)C(C)(C)C)c2)n(C)c(=O)n3C)c1 [I-B3, (2S,4R)-1-((S)-15-(tert-butyl)-1-(3-(N-(1,3-dimethyl-2-oxo-6-(3-propoxyphenoxy)-2,3-dihydro-1H-benzo[d]imidazol-5-yl)sulfamoyl)phenyl)-1,13-dioxo-5,8,11-trioxa-2,14-diazahexadecan-16-oyl)-4-hydroxy-N-(4-(4-methylthiazol-5-yl)benzyl)pyrrolidine-2-carboxamide]
